Reference: publication PMC6478789, “A chemical toolbox for the study of bromodomains and epigenetic signaling” (Nature Communications, 2019)

Assays:
[1] = target: TAF1L(2); set-up: method as in ref 13 (suppl.); details: ITC data; ref 13 (suppl.); cited from earlier work
[2] = tested on: MDA-MB-436 cells; experiment: NAD+/NADH ratio measurement assay; format: cell-based, human; details: BAY-876, 5 days
Protocol: Cells were seeded in six-well plates followed by overnight incubation. The next day, cells were treated with DMSO or the indicated concentration of BAY-876. After 5 days, cells were lysed, and intracellular metabolites were measured using commercial kits detecting acetyl-CoA (PicoProbe, Abcam ab87546) and NAD^+/NADH ratio (Abcam 65348).

[3] = tested on: TNBC cells; experiment: Colony formation assay; format: cell-based, human; details: 3 µM, 2 weeks
Protocol: Colony formation studies were performed with TNBC cells on treatment with DMSO or the indicated concentrations of BAY-876. Cells were seeded into 6-well plates at 200 cells per well and left to adhere overnight. Then, cells were treated with DMSO or 3 µM BAY-876. After 2 weeks, the cells were stained with crystal violet and imaged.

[4] = target: T1, GCN5L2 (Homo sapiens, UniProt Q92830); set-up: purchased; method as in ref 2 (suppl.), 26 (main text); details: BROMOscan; ref 2 (suppl.), 26; read-out: KD (nM), GCN5; cited from earlier work
T1 sequence (Q92830 728-832 limits assumed): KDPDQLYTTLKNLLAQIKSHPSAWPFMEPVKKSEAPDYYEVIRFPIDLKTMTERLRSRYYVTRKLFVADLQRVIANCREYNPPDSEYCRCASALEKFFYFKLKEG

[5] = target: T2, ATAD2B (Homo sapiens, UniProt Q9ULI0); set-up: purchased; method as in ref 18 (suppl.); details: ITC; ref 18 (suppl.); cited from earlier work
T2 sequence (Q9ULI0 951-1066 limits assumed): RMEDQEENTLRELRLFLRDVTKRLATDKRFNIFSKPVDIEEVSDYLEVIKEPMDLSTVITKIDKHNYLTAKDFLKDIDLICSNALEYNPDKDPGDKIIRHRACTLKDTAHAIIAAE

[6] = target: p300; details: ITC data; ref 9 (suppl.); cited from earlier work
[7] = target: GCN5; set-up: method as in ref 1 (suppl.), 25 (main text); details: ITC data; ref 1 (suppl.), 25; cited from earlier work
[8] = tested on: MDA-MB436 cells; experiment: Cell apoptosis assay (caspase-3/7); format: cell-based, human; details: 3 μM OF-1 + 3 μM BAY-876, 5 days, versus either alone
Protocol: Cells were seeded into 96-well plates at 3000 cells per well and left to adhere overnight. Then, cells were treated with DMSO or BAY-876 for 5 days, followed by addition of Incucyte TM Caspase- 3/7 reagents. Imaging of plates was carried out in an Incucyte Zoom instrument with a ×10 objective using the standard scan type. Data were analyzed using the integrated software provided with the instrument.
(§1) Wu et al., Supplementary figures and tables 5 indicate mean and error bars denote standard deviation from eight wells (from two independent assays). b) A representative immunoblot of histone acetylation level across ten TNBC lines. c) Plot of ECAR and histone acetylation across ten TNBC lines. […] Cell apoptotic activity was quantified by the fluorescent caspase 3/7 active objects. […]
Graph indicate mean and error bars denote standard deviation from four independent assay s. p value computed using a two - stage step -up Benjamini t test j) Immunoblot based quantification of H3K14ac abundance using total H3 as a control in MDA-MB-436 cells following control or 3 μM of the indicated chemical probes during a 5-day treatment. Graph indicate mean and error bars denote standard deviation from three independent assays. p value computed using a two-stage step-up Benjamini t test; **p<0.01; *** p<0.001. k) Immunoblot based quantification of H3K14ac abundance using total […]

[9] = tested on: MDA-MB-436 cells; experiment: Immunoblot of H3K14 acetylation; format: cell-based, human; details: 3 μM, 5 days; compared to NI-57 and PFI-4
Excerpt: Graph indicates mean, error bars denote s.d. from eight wells (from two independent assays) and p-value was computed using the Benjamini-Hochberg t test; ***p < 0.001. d Immunoblot validation of BRPF knockdown in MDA-MB-436 cells. e Quantitative real-time PCR (RT-qPCR) validation of BRPF knockdown in MDA-MB-436 cells. […] Raw data images are available in Supplementary Fig. 4 […]
Total cell lysates were resolved in 4−12% Bis-Tris protein gels (Invitrogen) with MOPS (3-(N-morpholino)propanesulfonic acid) buffer (Invitrogen) and transferred for 1.5 h (80 V) onto polyvinylidene fluoride membrane (Millipore) in Tris-glycine transfer buffer containing 20% MeOH and 0.05% sodium dodecyl sulfate. […] The signal was read on an Odyssey scanner (LiCor) at 800 and 700 nm.
as §1

Cc1cc2c(cc1N1C(=O)c3cccc4c(CCCO)ccc(c34)C1=O)n(C)c(=O)n2C [BAY-299]
Kd [1]: 234 nM

Cc1c(NC(=O)c2cc(C(N)=O)nc3cc(F)ccc23)c(C(F)(F)F)nn1Cc1ccc(C#N)cc1 [BAY-876]
NAD+/NADH ratio [2]: increase
cell growth (colony formation) [3]: no overt effect on cell growth

CN1C[C@H](Nc2cnn(C)c(=O)c2Br)C[C@H](c2ccccc2)C1 [GSK4027]
Kd [4]: 1.4 nM

CO[C@H]1CNC[C@@H](OCC2CCC(F)(F)CC2)[C@@H]1Nc1ncc(-c2cncc(C)c2)c2cc(C)c(=O)[nH]c12 [GSK8814]
Kd [5]: 10 nM

CCC(=O)N1CCOc2c(cc(-c3ccc(OC)c(OC)c3)cc2OCC2CCCN(C)C2)C1 (stereo not drawn) [I-CBP112]
Kd [6]: 625 nM

Cc1nnc2c3ccccc3c(N[C@@H](C)[C@H](c3ccccc3)N(C)C)nn12 [L-Moses]
Kd [7]: 600 nM

COc1cc2c(cc1NS(=O)(=O)c1ccc(Br)cc1C)n(C)c(=O)n2C [OF-1]
apoptosis markers caspase-3/7 [8]: induced at a significantly higher level
acetylation of H3K14 [9]: significantly decreased
